Reference: patent publication US10292962B2, “Pharmaceutical combination comprising metformin and dihydroquercetin and its use for the treatment of cancer” (RESEARCH INSTITUTE FOR NUTRITION AND AGING CO., LTD., priority 2013, dated 2019)

How the values were obtained:
WI-38 cells [1] = assay: Lactate production in human lung fibroblast cell line WI-38, racemate and optically-active dihydroquercetin (Example 10); details: for Metformin-induced lactate production: dihydroquercetin 1 mmol/L added 1 hr before metformin 20 mmol/L, 6 hr (FIG. 4, FIG. 5); for Lactate production: dihydroquercetin 1 mmol/L single, compared with the control group (FIG. 4, FIG. 5)
Procedure: On the following day after cell seeding, dihydroquercetin was added and the cells were cultured for 1 hr. Then, metformin was added and the cells were cultured for 6 hr. The conditioned medium was sampled, and the concentration of the lactate contained in the medium was measured and evaluated. Each group (N=3) was treated as follows: • (1) Control (vehicle control) group: 1% ethanol containing medium • (2) Dihydroquercetin single-treated group: dihydroquercetin 1 mmol/L • (3) Metformin single-treated group: metformin 20 mmol/L • (4) Combined-treated group: metformin 20 mmol/L+dihydroquercetin 1 mmol/L
The passage-cultured WI-38 cells were dissociated with trypsin, and suspended in fresh medium. The cell density of the cell suspension was determined using a hematocytometer and adjusted to 2.5×10^5 cells/mL. The cells were seeded on 24-well multiwell culture plate (IWAKI) at 0.5 mL per well, and cultured overnight under the conditions of 37° C., 5% CO2. Thereto was added a medium containing a given concentration of dihydroquercetin and the cells were cultured for 1 hr, a medium containing a given concentration of metformin was added and the cells were further cultured for 6 hr. After culture, the culture supernatant from each well was sampled and passed through a filter for molecular weight cut-off 10 kDa to obtain the filtrate. Using the Lactate Assay Kit II (BioVision) catalog no. K627-100, lactate concentration was measured. The cells after sampling of the culture supernatant were washed twice with D-PBS, and cell lysis buffer was added to prepare whole cell lysates. The concentrations of the protein in the whole cell lysates were measured using BCA protein assay, and the lactate concentration of each well was normalized with the protein concentration.
To evaluate the influence of dihydroquercetin on the metformin-induced produced lactate content, the Student's t-test was performed for the concentration of lactate in the medium between the control group and the dihydroquercetin single agent treated group, and between the control group and the metformin single agent treated group. In addition, to evaluate an influence of the combination of dihydroquercetin and metformin for normalized produced lactate content, a two-way ANOVA (two-tailed) (factors: group and concentration) was performed between the dihydroquercetin single agent treated group (groups 1 and 2) and the metformin treated group (groups 3 and 4). […] The analysis was performed using SAS software Release 9.3 (SAS Institute Japan). The differences were considered statistically significant when the p value was less than 0.05.

WI-38 cells [2] = assay: Metformin-induced lactate production in human lung fibroblast cell line WI-38 (Example 3); type: cell-based; details: dihydroquercetin 1 mmol/L added 1 hr before metformin 20 mmol/L, 6 hr, vs metformin single (FIG. 3)
Procedure: After the culture, the conditioned medium was sampled, and the concentration of lactate contained in the medium was measured and evaluated.
Medium containing the given concentration of dihydroquercetin was added to each well and the cells were cultured for 1 hr. […] Using the Lactate Assay Kit II (BioVision) catalog no. K627-100, lactate concentration was measured.

[3] = tested on: phospho-4E-BP1 (Thr37/Thr46) protein; assay: Relative phospho-4E-BP1 protein amount (ELISA) in human liver cancer cell line HuH-7 (Example 4); type: cell-based; details: metformin 5 mmol/L, dihydroquercetin 0.2 mmol/L, single or combined, 6 hr, control 84.1
Procedure: (§1) On the following day after cell seeding, test substances were added and the cells were cultured for 6 hr before harvesting them. The amounts of relative phospho-4E-BP1 protein contained in the prepared whole cell lysates were measured and evaluated. Each group (N=3) was treated as follows: • (1) Control (vehicle control) group: 1% ethanol containing medium • (2) Metformin single-treated group: metformin 5 mmol/L • (3) Dihydroquercetin single-treated group: dihydroquercetin 0.2 mmol/L • (4) Combined-treated group: metformin 5 mmol/L+dihydroquercetin 0.2 mmol/L
The passage-cultured HuH-7 cells were dissociated with trypsin, and suspended in fresh medium. The cell density of the cell suspension was determined using a hematocytometer and adjusted to 2.5×10^5 cells/mL. The cells were seeded on 12-well multiwell culture plate at 1 mL per well, and cultured overnight under the conditions of 37° C., 5% CO2. […] Upon centrifugation, the supernatants were sampled, and the amounts of relative phospho-4E-BP1 (Thr37/Thr46) protein in the samples were quantified using ELISA kits in the same manner as in Example 1. The concentrations of the total protein in the whole cell lysates were measured using BCA protein assay, and the relative phospho-4E-BP1 protein amount of each well was normalized with the total protein amount. […]

[4] = tested on: phospho-4E-BP1 (Thr37/Thr46) protein; assay: Relative phospho-4E-BP1 protein amount (ELISA) in human breast cancer cell line MDA-MB-231 (Example 5); type: cell-based; details: metformin 5 mmol/L, dihydroquercetin 0.2 mmol/L, single or combined, 6 hr, control 33.3
Procedure: as §1
The passage-cultured MDA-MB-231 cells were dissociated with trypsin, and suspended in fresh medium. The cell density of the cell suspension was determined using a hematocytometor and adjusted to 2.5×10^5 cells/mL. The cells were seeded on 12-well multiwell culture plate at 1 mL per well, and cultured overnight under the conditions of 37° C., 5% CO2. […] Upon centrifugation, the supernatants were sampled, and the amounts of relative phospho-4E-BP1 (Thr37/Thr46) protein in the samples were quantified using ELISA kits in the same manner as in Example 1. The concentrations of total protein in the whole cell lysates were measured using BOA protein assay, and the relative phospho-4E-BP1 protein amount of each well was normalized with the total protein amount. […]

[5] = tested on: phospho-4E-BP1 (Thr37/Thr46) protein; assay: Relative phospho-4E-BP1 protein amount (ELISA) in human prostate cancer cell line 22Rv1 (Example 6); type: cell-based; details: metformin 10 mmol/L, dihydroquercetin 0.2 mmol/L, single or combined, 6 hr, control 51.0
Procedure: On the following day after cell seeding, test substances were added and the cells were cultured for 6 hr before harvesting them. The amounts of relative phospho-4E-BP1 protein contained in the prepared whole cell lysates were measured and evaluated. Each group (N=3) was treated as follows: • (1) Control (vehicle control) group: 1% ethanol containing medium • (2) Metformin single-treated group: metformin 10 mmol/L • (3) Dihydroquercetin single-treated group: dihydroquercetin 0.2 mmol/L • (4) Combined-treated group: metformin 10 mmol/L+dihydroquercetin 0.2 mmol/L
The passage-cultured 22Rv1 cells were dissociated with trypsin, and suspended in fresh medium. The cell density of the cell suspension was determined using a hematocytometer and adjusted to 2.5×10^5 cells/mL. The cells were seeded on 12-well multiwell culture plate at 1 mL per well, and cultured overnight under the conditions of 37° C., 5% CO2. […] Upon centrifugation, the supernatants were sampled, and the amounts of relative phospho-4E-BP1 (Thr37/Thr46) protein in the samples were quantified using ELISA kits in the same manner as in Example 1. The concentrations of total protein in the whole cell lysates were measured using BCA protein assay, and the relative phospho-4E-BP1 protein amount of each well was normalized with the total protein amount. […]

[6] = tested on: phospho-4E-BP1 (Thr37/Thr46) protein; assay: Relative phospho-4E-BP1 protein amount (ELISA) in human bile duct cancer cell line HuH-28 (Example 7); type: cell-based; details: metformin 20 mmol/L, dihydroquercetin 0.2 mmol/L, single or combined, 6 hr, control 58.8
Procedure: On the following day after cell seeding, test substances were added and the cells were cultured for 6 hr before harvesting them. The amounts of relative phospho-4E-BP1 protein contained in the prepared whole cell lysates were measured and evaluated. Each group (N=3) was treated as follows: • (1) Control (vehicle control) group: 1% ethanol containing medium • (2) Metformin single-treated group: metformin 20 mmol/L • (3) dihydroquercetin single-treated group: dihydroquercetin 0.2 mmol/L • (4) combined-treated group: metformin 20 mmol/L+dihydroquercetin 0.2 mmol/L
The passage-cultured HuH-28 cells were dissociated with trypsin, and suspended in the medium. The cell density of the cell suspension was determined using a hematocytometer and adjusted to 2.5×10^5 cells/mL. The cells were seeded on 12-well multiwell culture plate at 1 mL per well, and cultured overnight under the conditions of 37° C., 5% CO2. […] Upon centrifugation, the supernatants were sampled, and the amounts of relative phospho-4E-BP1 (Thr37/Thr46) protein in the samples were quantified using ELISA kits in the same manner as in Example 1. The total protein concentrations in the whole cell lysates were measured using BCA protein assay, and the relative phospho-4E-BP1 protein amount of each well was normalized with the total protein amount. […]

[7] = tested on: phospho-4E-BP1 (Thr37/Thr46) protein; assay: Relative phospho-4E-BP1 protein amount (ELISA) in human ovarian cancer cell line Caov-3 (Example 8); type: cell-based; details: metformin 20 mmol/L, dihydroquercetin 0.2 mmol/L, single or combined, 6 hr, control 21.6
Procedure: On the following day after cell seeding, test substances were added and the cells were cultured for 6 hr before harvesting them. The amounts of relative phospho-4E-BP1 protein contained in the prepared whole cell lysates were measured and evaluated. Each group (N=3) was treated as follows: • (1) Control (vehicle control) group: 1% ethanol containing medium • (2) Metformin single-treated group: metformin 20 mmol/L • (3) Dihydroquercetin single-treated group: dihydroquercetin 0.2 mmol/L • (4) Combined-treated group: metformin 20 mmol/L+dihydroquercetin 0.2 mmol/L
The passage-cultured Caov-3 cells were dissociated with trypsin, and suspended in fresh medium. The cell density of the cell suspension was determined using a hematocytometer and adjusted to 2.5×10^5 cells/mL. The cells were seeded on 12-well multiwell culture plate at 1 mL per well, and cultured overnight under the conditions of 37° C., 5% CO2. […] Upon centrifugation, the supernatants were sampled, and the amounts of relative phospho-4E-BP1 (Thr37/Thr46) protein in the samples were quantified using ELISA kits in the same manner as in Example 1. The total protein concentrations in the whole cell lysates were measured using BCA protein assay, and the relative phospho-4E-BP1 protein amount of each well was normalized with the total protein amount. […]

[8] = tested on: phospho-4E-BP1 (Thr37/Thr46) protein; assay: Relative phospho-4E-BP1 protein amount (ELISA) in human pancreatic cancer cell line AsPC-1, 24 hr (Example 9); type: cell-based; details: single or combined
Procedure: Each group (N=3) was treated as follows. • (1) Control (vehicle control) group: 1% ethanol containing medium • (2) Metformin single-treated group: metformin 1.5, 3 and 6 mmol/L • (3) Dihydroquercetin-single treated group: dihydroquercetin 0.3 mmol/L • (4) Combined-treated group: metformin 1.5, 3 and 6 mmol/L+dihydroquercetin 0.3 mmol/L
The passage-cultured AsPC-1 cells were dissociated with trypsin, and suspended in fresh medium. The cell density of the cell suspension was determined using a hematocytometer and adjusted to 2.5×10^5 cells/mL. The cells were seeded on 12-well multiwell culture plate at 1 mL per well, and cultured overnight under the conditions of 37° C., 5% CO2. On the following day, medium containing metformin or dihydroquercetin or both metformin and dihydroquercetin, at the given concentration, was added into each well. After incubation under the conditions of 37° C., 5% CO2 for 24 hr, the cells in each well were washed twice with D-PBS, and whole cell lysates were prepared using cell lysis buffer. Upon centrifugation, the supernatants were sampled, and the amounts of relative phospho-4E-BP1 (Thr37/Thr46) protein in the samples were quantified using ELISA kits in the same manner as in Example 1. The concentrations of total protein in the whole cell lysates were measured using BCA protein assay, and the relative phospho-4E-BP1 protein amount of each well was normalized with the total protein amount.
To evaluate the influence of the combined use on relative phospho-4E-BP1 protein amount, Dunnett test was performed to compare the combined-treated group with each single agent-treated group. […] The differences were considered statistically significant when the p value was less than 0.05.

[9] = tested on: phospho-4E-BP1 (Thr37/Thr46) protein; assay: Relative phospho-4E-BP1 protein amount (ELISA) in AsPC-1, dihydroquercetin single agent (Example 11); type: cell-based, human
Procedure: To evaluate the dose dependency of dihydroquercetin on the relative phospho-4E-BP1 protein amount, the linear regression analysis was performed. As a result, dose dependency was observed. Then, the Williams' test (one-tailed) was performed between the control group and the single agent treated group. As a result, a significant suppressive action of dihydroquercetin at not less than 0.5 mmol/L on relative phospho-4E-BP1 protein amount was observed.

AsPC-1 cells = assay: Proportion of CD44 and CD24 double positive cells (cancer stem cell surface markers) in AsPC-1 by flow cytometry (Example 12); type: cell-based, human; details: 72 hr, dihydroquercetin 0.3 mmol/L, metformin 15 mmol/L + dihydroquercetin 0.3 mmol/L, or gemcitabine 100 nmol/L, compared with the control group (FIG. 7)
Procedure: Each group (N=10) was treated as follows: • (1) Control (vehicle control) group: 1.5% distilled water, 0.3% ethanol and 0.1% DMSO containing medium • (2) Metformin single-treated group: metformin 15 mmol/L • (3) Dihydroquercetin single-treated group: dihydroquercetin 0.3 mmol/L • (4) Metformin-dihydroquercetin combined-treated group: metformin 15 mmol/L+dihydroquercetin 0.3 mmol/L • (5) Gemcitabine single-treated group: gemcitabine 100 nmol/L • (6) Metformin.dihydroquercetin.gemcitabine combined-treated group: metformin 15 mmol/L+dihydroquercetin 0.3 mmol/L+gemcitabine 100 nmol/L
The passage-cultured AsPC-1 cells were dissociated with trypsin, and suspended in fresh medium. The cell density of the cell suspension was determined using a hematocytometer and adjusted to 2×10^4 cells/mL. The cells were seeded on 6-well multiwell culture plate (IWAKI) at 3 mL per well, and cultured overnight under the conditions of 37° C., 5% CO2. […] After washing with FACS (fluorescence activated cell sorting) buffer, the cells were stained with FITC-labeled anti-human CD44 antibody and APC-labeled anti-human CD24 antibody, and treated at 4° C. for 30 min. Thereafter, the cells were washed with the FACS buffer, passed through a 40 micron mesh filter, and the proportion of CD44 and CD24 double positive cells was determined using the flow cytometer (Nippon Becton Dickinson and Company, Ltd.). […]

[10] = metformin:dihydroquercetin = 1.5 mmol/L:0.3 mmol/L, control 107.3
[11] = metformin:dihydroquercetin = 3 mmol/L:0.3 mmol/L, control 33.5
[12] = metformin:dihydroquercetin = 6 mmol/L:0.3 mmol/L, control 107.3

Compound: O=C1c2c(O)cc(O)cc2O[C@H](c2ccc(O)c(O)c2)[C@H]1O [optically-active dihydroquercetin, (2R,3R)-dihydroquercetin]
- Metformin-induced lactate production (WI-38 cells [1]): significantly suppressed
- Lactate production (WI-38 cells [1]): suppressed lactate production

Compound: O=C1c2c(O)cc(O)cc2OC(c2ccc(O)c(O)c2)C1O (racemic) [Dihydroquercetin, dihydroquercetin]
- Lactate production induced by metformin (WI-38 cells [2]): significantly suppressed the lactate production induced by metformin
- Relative phospho-4E-BP1 protein amount MEAN [3]: 59.7
- Relative phospho-4E-BP1 protein amount MEAN [4]: 25.9
- Relative phospho-4E-BP1 protein amount MEAN [5]: 53.1
- Relative phospho-4E-BP1 protein amount MEAN [6]: 54.2
- Relative phospho-4E-BP1 protein amount MEAN [7]: 21.0
- Relative phospho-4E-BP1 protein amount MEAN [8, 10]: 97.4
- Relative phospho-4E-BP1 protein amount MEAN [8, 11]: 37.2
- Relative phospho-4E-BP1 protein amount MEAN [8, 12]: 89.7
- Metformin-induced lactate production (WI-38 cells [1]): significantly suppressed
- Lactate production (WI-38 cells [1]): suppressed lactate production
- Concentration of dihydroquercetin with significant suppressive action on relative phospho-4E-BP1 protein amount ([9]; 6 hr, Williams' test vs control group): not less than 0.5 mmol/L
- Relative phospho-4E-BP1 protein amount ([9]; dihydroquercetin 0.5 and 1 mmol/L single agent, 6 hr (FIG. 6)): dose-dependent suppressive effect
- Proportion of CD44 and CD24 double positive cells (AsPC-1 cells): significantly decreased

Compound: CN(C)C(=N)N=C(N)N [Metformin, metformin]
- Relative phospho-4E-BP1 protein amount MEAN [3]: 61.7
- Relative phospho-4E-BP1 protein amount MEAN [4]: 37.1
- Relative phospho-4E-BP1 protein amount MEAN [5]: 57.3
- Relative phospho-4E-BP1 protein amount MEAN [6]: 55.2
- Relative phospho-4E-BP1 protein amount MEAN [7]: 22.0
- Relative phospho-4E-BP1 protein amount MEAN [8, 10]: 83.1
- Relative phospho-4E-BP1 protein amount MEAN [8, 11]: 36.9
- Relative phospho-4E-BP1 protein amount MEAN [8, 12]: 83.1

Compound: Nc1ccn([C@@H]2O[C@H](CO)[C@@H](O)C2(F)F)c(=O)n1 [Gemcitabine, gemcitabine, reference compound]
- Proportion of CD44 and CD24 double positive cells (AsPC-1 cells): significantly increased
